Here are results for 28 compounds from ChEMBL document CHEMBL1141509, “Development of pyridopyrimidines as potent Akt1/2 inhibitors” (Bioorg Med Chem Lett, 2008).

A word on the IC50: it is the concentration at which inhibition is half-maximal. High values mean a need for much substance, low ones inhibition by little substance.

The target in assay [1] is T1, RAC-beta serine/threonine-protein kinase (Homo sapiens, UniProt P31751). The assay is described as follows: Inhibition of Akt2.
Assay [2] concerns the target T2, RAC-alpha serine/threonine-protein kinase (Homo sapiens, UniProt P31749). The assay is described as follows: Inhibition of Akt1.
Assay [3] deals with T1, RAC-beta serine/threonine-protein kinase. Kind of assay: Inhibition of Akt2 in human C33A cells by immunoprecipitation kinase assay. Format: cell-based, C-33-A.
The target of assay [4] is T2, RAC-alpha serine/threonine-protein kinase. The assay is described as follows: Inhibition of human Akt1 in human C33A cells by immunoprecipitation kinase assay. In kind it is cell-based, C-33-A.
The nature of assay [5]: Inhibition of PKC.
Assay [6] is described as follows: Inhibition of PKA.
Assay [7] addresses T3, Serine/threonine-protein kinase Sgk1 (Homo sapiens, UniProt O00141).
T3 sequence (O00141 whole entry): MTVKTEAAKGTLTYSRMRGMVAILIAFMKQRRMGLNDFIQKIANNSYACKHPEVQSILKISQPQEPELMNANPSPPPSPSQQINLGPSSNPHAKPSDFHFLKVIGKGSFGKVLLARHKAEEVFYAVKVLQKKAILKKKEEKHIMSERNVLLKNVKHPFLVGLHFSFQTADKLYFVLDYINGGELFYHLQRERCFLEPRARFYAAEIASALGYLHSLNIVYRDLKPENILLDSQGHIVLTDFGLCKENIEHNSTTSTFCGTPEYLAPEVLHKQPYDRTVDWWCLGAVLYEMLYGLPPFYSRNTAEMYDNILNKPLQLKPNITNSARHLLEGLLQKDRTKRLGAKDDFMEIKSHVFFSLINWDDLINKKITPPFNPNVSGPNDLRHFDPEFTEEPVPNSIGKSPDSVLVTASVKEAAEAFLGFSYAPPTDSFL
Kind of assay: Inhibition of SGK.

Assay [8] deals with RAC-gamma serine/threonine-protein kinase (Homo sapiens, UniProt Q9Y243). The assay is described as follows: Inhibition of Akt3.
Sequence of RAC-gamma serine/threonine-protein kinase (Q9Y243 whole entry): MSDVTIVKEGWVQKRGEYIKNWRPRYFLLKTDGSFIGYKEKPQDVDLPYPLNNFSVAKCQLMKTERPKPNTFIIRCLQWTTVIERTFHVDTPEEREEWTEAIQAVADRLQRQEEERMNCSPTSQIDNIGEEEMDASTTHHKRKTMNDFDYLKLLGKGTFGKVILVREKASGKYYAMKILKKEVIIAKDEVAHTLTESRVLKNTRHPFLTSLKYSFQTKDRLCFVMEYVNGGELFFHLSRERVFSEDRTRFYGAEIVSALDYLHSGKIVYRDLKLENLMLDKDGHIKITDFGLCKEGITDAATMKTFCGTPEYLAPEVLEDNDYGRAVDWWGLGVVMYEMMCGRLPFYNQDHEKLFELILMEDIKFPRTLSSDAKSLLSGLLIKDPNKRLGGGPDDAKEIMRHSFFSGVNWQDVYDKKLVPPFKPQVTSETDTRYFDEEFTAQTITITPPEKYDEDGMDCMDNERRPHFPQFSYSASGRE

A value given as a limit tells only on which side of the number the result lay.

T1 sequence (P31751 whole entry): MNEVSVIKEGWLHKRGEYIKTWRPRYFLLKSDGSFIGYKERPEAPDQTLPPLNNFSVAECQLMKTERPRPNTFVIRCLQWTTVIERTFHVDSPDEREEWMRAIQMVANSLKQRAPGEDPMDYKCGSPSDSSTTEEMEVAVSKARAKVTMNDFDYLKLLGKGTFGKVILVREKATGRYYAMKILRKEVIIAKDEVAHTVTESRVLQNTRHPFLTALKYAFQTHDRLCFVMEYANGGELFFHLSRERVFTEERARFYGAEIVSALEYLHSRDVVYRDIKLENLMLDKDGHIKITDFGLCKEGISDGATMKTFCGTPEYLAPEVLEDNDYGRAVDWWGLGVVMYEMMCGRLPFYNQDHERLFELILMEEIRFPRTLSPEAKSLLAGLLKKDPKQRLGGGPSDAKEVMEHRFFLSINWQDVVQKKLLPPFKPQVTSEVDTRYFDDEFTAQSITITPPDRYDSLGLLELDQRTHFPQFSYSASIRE
T2 sequence (P31749 whole entry): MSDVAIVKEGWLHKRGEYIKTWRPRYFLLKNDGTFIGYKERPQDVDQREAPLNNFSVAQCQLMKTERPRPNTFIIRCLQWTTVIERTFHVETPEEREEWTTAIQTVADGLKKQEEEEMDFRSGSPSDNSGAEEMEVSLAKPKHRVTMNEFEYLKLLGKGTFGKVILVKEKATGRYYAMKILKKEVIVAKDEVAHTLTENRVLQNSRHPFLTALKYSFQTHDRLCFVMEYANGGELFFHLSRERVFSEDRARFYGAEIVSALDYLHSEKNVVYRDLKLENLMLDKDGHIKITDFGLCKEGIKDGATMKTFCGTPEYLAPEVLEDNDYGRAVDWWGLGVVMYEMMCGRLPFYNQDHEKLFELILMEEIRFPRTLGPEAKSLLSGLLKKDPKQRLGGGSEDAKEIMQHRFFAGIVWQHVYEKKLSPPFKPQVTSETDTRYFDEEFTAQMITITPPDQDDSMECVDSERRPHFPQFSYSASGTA

Take `CSc1ncc2cc(-c3ccccc3)c(-c3ccc(CNCCCN4CCN(C)CC4)cc3)nc2n1`: the values for the IC50 in assay [1] and in assay [2] were 8920 nM and 765 nM, respectively.

For the compound `CSc1ncc2cc(-c3ccccc3)c(-c3ccc(CNCCc4c[nH]cn4)cc3)nc2n1`, the figures for the 50% inhibitory concentration (IC50) in assay [1] and in assay [2] were 1240 nM and 99 nM, respectively.

With `CSc1ncc2cc(-c3ccccc3)c(-c3ccc(CNCCc4nc[nH]n4)cc3)nc2n1`, the IC50 in assay [1] stood at 1710 nM; in assay [2], 139 nM.

In the case of `CSc1ncc2cc(-c3ccccc3)c(-c3ccc(CNCCc4nccs4)cc3)nc2n1`, the figures for the IC50 in assay [1] and in assay [2] were 1380 nM and 198 nM, respectively.

Regarding `CSc1ncc2cc(-c3ccccc3)c(-c3ccc(CNCCCn4ccnc4)cc3)nc2n1`, the IC50 in assay [1] was determined as 1510 nM; in assay [2], 137 nM.

`CSc1ncc2cc(-c3ccccc3)c(-c3ccc(CN(C)CCc4cn[nH]c4)cc3)nc2n1`: the half-inhibitory concentration (IC50) in assay [1] is 17500 nM; in assay [2] it was 1520 nM.

In the case of `CSc1ncc2cc(-c3ccccc3)c(-c3ccc(CNCCc4nnc(-c5ccccc5)[nH]4)cc3)nc2n1`, the figures for the IC50 in assay [1] and in assay [2] were 494 nM and 63 nM, respectively.

For `CSc1ncc2cc(-c3ccccc3)c(-c3ccc(CNCCc4nnc(N)s4)cc3)nc2n1`, the IC50 in assay [1] is 529 nM; in assay [2], 46 nM.

Consider `CSc1ncc2cc(-c3ccccc3)c(-c3ccc(CNCCC(=O)c4ccccc4N)cc3)nc2n1`, for which the values for the IC50 in assay [1] and in assay [2] were 90 nM and 15 nM, respectively.

Turning to `CSc1ncc2cc(-c3ccccc3)c(-c3ccc(CN4CCC(C(N)=O)CC4)cc3)nc2n1`, the IC50 was determined as 9260 nM in assay [3], 560 nM in assay [4], 928 nM in assay [1] and 29 nM in assay [2].

Consider `CCNC(=O)NC1CCN(Cc2ccc(-c3nc4nc(SC)ncc4cc3-c3ccccc3)cc2)CC1`, for which the half-maximal inhibitory concentration (IC50) in assay [3] stood at 5300 nM; in assay [4], 795 nM; in assay [1] it was 1910 nM; in assay [2], 81 nM.

As to `CSc1ncc2cc(-c3ccccc3)c(-c3ccc(CN4CCC(C(=O)NCCC(N)=O)CC4)cc3)nc2n1`, the IC50 in assay [1] is 2110 nM; in assay [2], 91 nM.

As for `CSc1ncc2cc(-c3ccccc3)c(-c3ccc(CN4CCC(NC(=O)CNC(C)=O)CC4)cc3)nc2n1`, the IC50 amounted to 5130 nM in assay [1] and 286 nM in assay [2].

On to `CSc1ncc2cc(-c3ccccc3)c(-c3ccc(CN4CCC(C(=O)Nc5ccncc5)CC4)cc3)nc2n1`, for which the IC50 in assay [3] came to 1130 nM; in assay [4] it was 133 nM; in assay [1] it was 301 nM; in assay [2], 9.7 nM.

In the case of `CNc1ncc2cc(-c3ccccc3)c(-c3ccc(CN4CCC(c5nnc(-c6ccccn6)[nH]5)CC4)cc3)nc2n1`, the IC50 in assay [5] was greater than 50000 nM; in assay [6], greater than 50000 nM; in assay [7] it was greater than 50000 nM; in assay [8], 2470 nM; in assay [3] it was 899 nM; in assay [4], 20.3 nM. Besides, the values for the concentration for half-maximal inhibition (IC50) in assay [1] and in assay [2] were 94.4 nM and 6 nM, respectively.

For the compound `Nc1ncnc2nc(-c3ccc(CN4CCC(c5nc6ccc(F)cc6[nH]5)CC4)cc3)c(-c3ccccc3)cc12`, the results for the IC50 in assay [3] and in assay [1] were 1810 nM and 239 nM, respectively.

On to `Nc1ncnc2nc(-c3ccc(CN4CCC(n5ncc6c(N)ncnc65)CC4)cc3)c(-c3ccccc3)cc12`, for which the IC50 in assay [3] was found to be 468 nM; in assay [4] it was 295 nM; in assay [1] it was 99 nM; in assay [2], 14 nM.

Regarding `CSc1ncc2cc(-c3ccccc3)c(-c3ccc(CN4CCC(n5ncc6c(N)ncnc65)CC4)cc3)nc2n1`, the IC50 in assay [3] is 828 nM; in assay [4] it was 60 nM; in assay [1] it was 44 nM; in assay [2], 4 nM.

With `CSc1ncc2cc(-c3ccccc3)c(-c3ccc(CN4CCC(c5nnc(-c6ccccn6)[nH]5)CC4)cc3)nc2n1`, the IC50 was 589 nM in assay [3], 9.3 nM in assay [4], 26 nM in assay [1] and 3.8 nM in assay [2].

In the case of `CSc1ncc2cc(-c3ccccc3)c(-c3ccc(CNCCC(N)=O)cc3)nc2n1`, the IC50 in assay [1] was found to be 1300 nM; in assay [2], 226 nM.

In the case of `CSc1ncc2cc(-c3ccccc3)c(-c3ccc(CNCCc4cccnc4)cc3)nc2n1`, the IC50 in assay [1] worked out at 1160 nM; in assay [2], 90 nM.

Turning to `CSc1ncc2cc(-c3ccccc3)c(-c3ccc(CNCCc4nnc(C)[nH]4)cc3)nc2n1`, the IC50 in assay [1] turned out to be 1790 nM; in assay [2], 162 nM.

For the compound `CSc1ncc2cc(-c3ccccc3)c(-c3ccc(CN4CCC(c5nnc(N)s5)CC4)cc3)nc2n1`, the IC50 in assay [3] was determined as 1570 nM; in assay [4], 79 nM; in assay [1], 267 nM; in assay [2] it was 8.5 nM.

Turning to `COc1ncc2cc(-c3ccccc3)c(-c3ccc(CN4CCC(c5nnc(-c6ccccn6)[nH]5)CC4)cc3)nc2n1`, the IC50 in assay [3] turned out to be 2300 nM; in assay [4], 42.6 nM; in assay [1], 107 nM; in assay [2], 23.6 nM.

For the compound `CSc1ncc2cc(-c3ccccc3)c(-c3ccc(CN4CCC(c5nc(-c6cccnc6)no5)CC4)cc3)nc2n1`, the IC50 amounted to 1300 nM in assay [1] and 64 nM in assay [2].

`CSc1ncc2cc(-c3ccccc3)c(-c3ccc(CN4CCC(c5cc(-c6ccncc6)[nH]n5)CC4)cc3)nc2n1`: the half-maximal inhibitory concentration (IC50) in assay [3] amounted to 635 nM; in assay [4], 85 nM; in assay [1] it was 57 nM; in assay [2] it was 4.5 nM.

`N#Cc1ncc2cc(-c3ccccc3)c(-c3ccc(CN4CCC(c5nnc(-c6ccccn6)[nH]5)CC4)cc3)nc2n1`: the IC50 in assay [3] turned out to be 586 nM; in assay [4], 100 nM; in assay [1], 59 nM; in assay [2], 24 nM.

With `NC(=O)c1ncc2cc(-c3ccccc3)c(-c3ccc(CN4CCC(c5nnc(-c6ccccn6)[nH]5)CC4)cc3)nc2n1`, the IC50 turned out to be 3710 nM in assay [3], 96.4 nM in assay [4], 35 nM in assay [1] and 6.2 nM in assay [2].
